Experimental data published in patent US10253004B2, “Indanylaminopyrazinylcyclopropanecarboxylic acids, pharmaceutical compositions and uses thereof” (Boehringer Ingelheim International GmbH, priority 2017, dated 2019).

Molecular target: human GPR40 receptor (Homo sapiens (Human), UniProt O14842)
Experiment: IP1 accumulation measurements using the IPOne assay system
Assay type: cell-based
Settings: 1321N1 cells stably expressing human GPR40; IP1 accumulation; read-out: EC50
Experimental: IP1 accumulation measurements using the IPOne assay system—1321N1 cells stably expressing human GPR40 receptor (Euroscreen, Belgium) are seeded 24 h before the assay in white 384-well plates in culture medium containing 10% FCS, 1% Na-Pyruvate and 400 μg/mL G418. IP1 is assayed according to the manufacturer's description (Cisbio Bioassays, France). In brief, the assay is started by substitution of the culture medium by stimulation buffer (Hepes 10 mM, CaCl2 1 mM, MgCl2 0.5 mM, KCl 4.2 mM, NaCl 146 mM, glucose 5.5 mM and LiCl 50 mM, pH 7.4). Cells are stimulated for 1 h at 37° C., 5% CO2 by addition of the compounds that are diluted in stimulation buffer containing LiCl. Assays are stopped by adding HTRF-conjugates (IP1-d2 and Anti-IP1 cryptate Tb) and lysis buffer, provided by the manufacturer. After an incubation time of 1 h at room temperature plates are measured using an EnVision™, Perkin Elmer. The obtained fluorescence ratios at 665/615 […] are then used to calculate the pEC50 values using Assay Explorer 3.3 Software (Accelrys, Inc.) by interpolation using an IP1 reference curve and subsequent sigmoidal curve fitting allowing for a variable hill slope.

Sequence of human GPR40 receptor (O14842 whole entry): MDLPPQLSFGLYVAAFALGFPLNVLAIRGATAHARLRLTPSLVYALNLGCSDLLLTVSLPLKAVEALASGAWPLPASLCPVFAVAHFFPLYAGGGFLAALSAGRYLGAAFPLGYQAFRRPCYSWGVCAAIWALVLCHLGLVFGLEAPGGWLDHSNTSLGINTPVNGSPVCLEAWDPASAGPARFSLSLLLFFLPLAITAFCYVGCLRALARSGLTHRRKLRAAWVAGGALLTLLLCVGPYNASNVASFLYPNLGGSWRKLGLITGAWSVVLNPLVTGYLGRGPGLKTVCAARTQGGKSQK

Compound | EC50
Cc1cc(OC2CCOCC2)cc(C)c1-c1ccc(F)c2c1CC[C@H]2Nc1cnc([C@H]2C[C@@H]2C(=O)O)cn1 [Example 31] | 0.009 µM
Cc1cc(OCC(=O)O)cc(C)c1-c1ccc(F)c2c1CC[C@H]2Nc1cnc([C@H]2C[C@@H]2C(=O)O)cn1 [Example 48] | 0.839 µM
Cc1cnc(-c2cc(C)c(-c3ccc(F)c4c3CC[C@H]4Nc3cnc([C@H]4C[C@@H]4C(=O)O)cn3)c(C)c2)nc1 [Example 38] | 0.004 µM
Cc1cc(OCC2CCOC2)cc(C)c1-c1ccc(F)c2c1CC[C@H]2Nc1cnc([C@H]2C[C@@H]2C(=O)O)cn1 (stereo partly shown) [Example 43] | 0.018 µM
Cc1cc(OCC2(O)CCOCC2)cc(C)c1-c1ccc(F)c2c1CC[C@H]2Nc1cnc([C@H]2C[C@@H]2C(=O)O)cn1 [Example 41] | 0.011 µM
O=C(O)[C@H]1C[C@@H]1c1cnc(N[C@@H]2CCc3c(-c4c(Cl)cccc4Cl)ccc(F)c32)cn1 [Example 25] | 0.007 µM
Cc1cc(C(=O)O)cc(C)c1-c1ccc(F)c2c1CC[C@H]2Nc1cnc([C@H]2C[C@@H]2C(=O)O)cn1 [Example 14] | 0.355 µM
COc1cc(OC)c(Cl)c(-c2ccc(F)c3c2CC[C@H]3Nc2cnc([C@H]3C[C@@H]3C(=O)O)cn2)c1Cl [Example 29] | 0.005 µM
Cc1cc(-c2ccnn2C)cc(C)c1-c1ccc(F)c2c1CC[C@H]2Nc1cnc([C@H]2C[C@@H]2C(=O)O)cn1 [Example 36] | 0.012 µM
Cc1cc(-c2cnccn2)cc(C)c1-c1ccc(F)c2c1CC[C@H]2Nc1cnc([C@H]2C[C@@H]2C(=O)O)cn1 [Example 54] | 0.004 µM
COc1cc(F)c(-c2ccc(F)c3c2CC[C@H]3Nc2cnc([C@H]3C[C@@H]3C(=O)O)cn2)c(F)c1 [Example 44] | 0.09 µM
Cc1cc(OCC2CCOCC2)cc(C)c1-c1ccc(F)c2c1CC[C@H]2Nc1cnc([C@H]2C[C@@H]2C(=O)O)cn1 [Example 13] | 0.004 µM
COc1cc(OC)c(-c2ccc(F)c3c2CC[C@H]3Nc2cnc([C@H]3C[C@@H]3C(=O)O)cn2)c(OC)c1 [Example 24] | 0.128 µM
COc1cc(-c2cc(C)c(-c3ccc(F)c4c3CC[C@H]4Nc3cnc([C@H]4C[C@@H]4C(=O)O)cn3)c(C)c2)ccn1 [Example 42] | 0.005 µM
COc1cnc(-c2ccc(-c3cccc4c3CC[C@H]4Nc3cnc([C@H]4C[C@@H]4C(=O)O)cn3)cc2)cn1 [Example 9, (1S,2S)-2-(5-{(R)-4-[4-(5-Methoxy-pyrazin-2-yl)-phenyl]-indan-1-ylamino}-pyrazin-2-yl)-cyclopropanecarboxylic acid] | 0.035 µM
O=C(O)[C@H]1C[C@@H]1c1cnc(N[C@@H]2CCc3c(-c4ccc(-c5cnco5)cc4)ccc(F)c32)cn1 [Example 23] | 0.144 µM
Cc1ccc(Cl)c(-c2ccc(F)c3c2CC[C@H]3Nc2cnc([C@H]3C[C@@H]3C(=O)O)cn2)c1Cl [Example 21] | 0.004 µM
CC(C)c1ccccc1-c1ccc(F)c2c1CC[C@H]2Nc1cnc([C@H]2C[C@@H]2C(=O)O)cn1 [Example 40] | 0.016 µM
Cc1cc(-c2nnn(C)n2)cc(C)c1-c1cccc2c1CC[C@H]2Nc1cnc([C@H]2C[C@@H]2C(=O)O)cn1 [Example 6, (1S,2S)-2-(5-{(R)-4-[2,6-Dimethyl-4-(2-methyl-2H-tetrazol-5-yl)-phenyl]-indan-1-ylamino}-pyrazin-2-yl)-cyclopropanecarboxylic acid] | 0.003 µM
COc1ccc(-c2cccc3c2CC[C@H]3Nc2cnc([C@H]3C[C@@H]3C(=O)O)cn2)cc1F [Example 8, (1S,2S)-2-{5-[(R)-4-(3-Fluoro-4-methoxy-phenyl)-indan-1-ylamino]-pyrazin-2-yl}-cyclopropanecarboxylic acid] | 0.163 µM
N#CC1(c2ccccc2-c2ccc(F)c3c2CC[C@H]3Nc2cnc([C@H]3C[C@@H]3C(=O)O)cn2)CC1 [Example 26] | 0.367 µM
Cc1cc(OCCC(C)(C)O)cc(C)c1-c1ccc(F)c2c1CC[C@H]2Nc1cnc([C@@H]2C[C@H]2C(=O)O)cn1 [Example 3, (1R,2R)-2-(5-{(R)-7-Fluoro-4-[4-(3-hydroxy-3-methyl-butoxy)-2,6-dimethyl-phenyl]-indan-1-ylamino}-pyrazin-2-yl)-cyclopropanecarboxylic acid] | 0.164 µM
Nc1cc(F)c(-c2ccc(F)c3c2CC[C@H]3Nc2cnc([C@H]3C[C@@H]3C(=O)O)cn2)c(F)c1 [Example 18] | 0.15 µM

Compound | EC50
O=C(O)[C@H]1C[C@@H]1c1cnc(N[C@@H]2CCc3c(-c4c(F)cc(OC5CC5)cc4F)ccc(F)c32)cn1 [Example 19] | 0.056 µM
Cc1cc(O[C@@H]2CCOC2)cc(C)c1-c1ccc(F)c2c1CC[C@H]2Nc1cnc([C@H]2C[C@@H]2C(=O)O)cn1 [Example 27] | 0.013 µM
CCc1cccc(CC)c1-c1ccc(F)c2c1CC[C@H]2Nc1cnc([C@H]2C[C@@H]2C(=O)O)cn1 [Example 49] | 0.004 µM
CNC(=O)c1cc(C)c(-c2ccc(F)c3c2CC[C@H]3Nc2cnc([C@H]3C[C@@H]3C(=O)O)cn2)c(C)c1 [Example 45] | 0.023 µM
Cc1cc(-c2ccc(=O)n(C)c2)cc(C)c1-c1ccc(F)c2c1CC[C@H]2Nc1cnc([C@H]2C[C@@H]2C(=O)O)cn1 [Example 33] | 0.006 µM
Cc1cc(OCCCS(C)(=O)=O)cc(C)c1-c1ccc(F)c2c1CC[C@H]2Nc1cnc([C@@H]2C[C@H]2C(=O)O)cn1 [Example 5, (1R,2R)-2-(5-{(R)-7-Fluoro-4-[4-(3-methanesulfonyl-propoxy)-2,6-dimethyl-phenyl]-indan-1-ylamino}-pyrazin-2-yl)-cyclopropanecarboxylic acid] | 0.519 µM
Cc1cc(OCCC(C)(C)O)cc(C)c1-c1ccc(F)c2c1CC[C@H]2Nc1cnc(C2C[C@@H]2C(=O)O)cn1 (stereo partly drawn) [Example 1, trans-2-(5-{(R)-7-Fluoro-4-[4-(3-hydroxy-3-methyl-butoxy)-2,6-dimethyl-phenyl]-indan-1-ylamino}-pyrazin-2-yl)-cyclopropanecarboxylic acid] | 0.007 µM
Cc1cc(OCC2(O)CCSCC2)cc(C)c1-c1ccc(F)c2c1CC[C@H]2Nc1cnc([C@H]2C[C@@H]2C(=O)O)cn1 [Example 52] | 0.01 µM
Cc1cc(-c2cc(=O)n(C)cn2)cc(C)c1-c1ccc(F)c2c1CC[C@H]2Nc1cnc([C@H]2C[C@@H]2C(=O)O)cn1 [Example 11] | 0.006 µM
Cc1cc(C(=O)N(C)C)cc(C)c1-c1ccc(F)c2c1CC[C@H]2Nc1cnc([C@H]2C[C@@H]2C(=O)O)cn1 [Example 20] | 0.075 µM
COc1cc(C)c(-c2ccc(F)c3c2CC[C@H]3Nc2cnc([C@H]3C[C@@H]3C(=O)O)cn2)c(C)c1 [Example 22] | 0.008 µM
COc1cc(OC)c(F)c(-c2ccc(F)c3c2CC[C@H]3Nc2cnc([C@H]3C[C@@H]3C(=O)O)cn2)c1F [Example 37] | 0.081 µM
Cc1cc(OCC2(C)COC2)cc(C)c1-c1ccc(F)c2c1CC[C@H]2Nc1cnc([C@H]2C[C@@H]2C(=O)O)cn1 [Example 32] | 0.007 µM
Cc1cc(-c2nnnn2CC(C)(C)O)cc(C)c1-c1ccc(F)c2c1CC[C@H]2Nc1cnc([C@H]2C[C@@H]2C(=O)O)cn1 [Example 39] | 0.003 µM
Cc1cccc(C)c1-c1ccc(F)c2c1CC[C@H]2Nc1cnc([C@H]2C[C@@H]2C(=O)O)cn1 [Example 15] | 0.007 µM
Cc1cc(CO)cc(C)c1-c1ccc(F)c2c1CC[C@H]2Nc1cnc([C@H]2C[C@@H]2C(=O)O)cn1 [Example 30] | 0.02 µM
Cc1cc(C#N)cc(C)c1-c1ccc(F)c2c1CC[C@H]2Nc1cnc([C@H]2C[C@@H]2C(=O)O)cn1 [Example 51] | 0.009 µM
Cc1cc(C(N)=O)cc(C)c1-c1ccc(F)c2c1CC[C@H]2Nc1cnc([C@H]2C[C@@H]2C(=O)O)cn1 [Example 10] | 0.024 µM
O=C(O)[C@H]1C[C@@H]1c1cnc(N[C@@H]2CCc3c(-c4c(F)cccc4F)ccc(F)c32)cn1 [Example 16] | 0.077 µM
Cc1cc(OCC2(O)CCS(=O)(=O)CC2)cc(C)c1-c1ccc(F)c2c1CC[C@H]2Nc1cnc([C@H]2C[C@@H]2C(=O)O)cn1 [Example 12] | 0.014 µM
O=C(O)[C@H]1C[C@@H]1c1cnc(N[C@@H]2CCc3c(-c4ccccc4C(F)(F)F)ccc(F)c32)cn1 [Example 17] | 0.023 µM
O=C(O)[C@H]1C[C@@H]1c1cnc(N[C@@H]2CCc3c(-c4c(F)cc(F)cc4F)ccc(F)c32)cn1 [Example 50] | 0.074 µM

Tested on: not listed separately
Experiment: Chemical stability (degradation kinetics) in acidic aqueous media, HPLC recovery
Assay type: physicochemical
Settings: pH ca. 1.2, 37° C., acetonitrile/0.1 M aqueous HCl (2:3)
Experimental: Degradation kinetics is used to simulate chemical stability of compounds in the acidic part of the gastro intestinal tract. […] Their application as medical drugs to treat human diseases is therefore less restricted and troublesome.
The chemical stability of the compounds of the invention at pH value of ca. 1.2 is determined as follows:
Compound is dissolved in an HPLC vial either in a mixture of acetonitrile/0.1 M aqueous HCl (2:3; pH ca. 1.2) or in a mixture of acetonitrile/Mcllvaine buffer pH 7.4 (2:3) to get a concentration of approximately 0.25 mg/ml. The vial was then transferred into an HPLC autosampler system and maintained at a temperature of 37° C. A first sample is taken and injected immediately into a standard HPLC system with a UV DAD detector. Further samples are injected after 2, 4, 6, 8 and 10 hours. Amount of degraded compound is measured by determining the recovery rate of compound [%] for each injection using an HPLC standard gradient method. Therefore the peak area of the main peak for the first injection (AUt0) is determined and set as 100%. Peak area of the main peak is determined also for the further injections (AUtn, n=2, 4, 6, 8, 10) and expressed as fraction of […] [%].

Compound | Amount of degradation after 2 h
Cc1cccc(C)c1-c1ccc(F)c2c1CC[C@H]2Oc1ccc(C2CC2C(=O)O)cc1 (stereo partly shown) [Example 33 in WO 2013/178575, reference compound] | 8%
